Data set [1] can be described thus: Cmax in rat at 3 mg/kg, iv. On the set-up: dose 3 mg/kg, route iv. The class given is ADME, organism-based. As to conditions: in vivo.
A short description of data set [2]: Ratio of drug level in brain to blood in BALB/c mouse at 5 mg/kg, po. The class given is ADME, organism-based.
Data set [3] addresses hERG (KCNH2) (Homo sapiens, UniProt Q12809). The experiment in a line: Inhibition of hERG at 30 uM relative to control. The class given is toxicity.
A short description of data set [4]: Efflux ratio in dog MDCK-MDR1 cells. It is filed as ADME, cell-based, Canis lupus familiaris.
Data set [5] is described as follows: Cmax in human CSF at 1000 mg, po bid administered for 8 weeks. The class given is ADME, organism-based, Cerebrospinal fluid. On the set-up: dose 1000 mg, time 8 weeks, route po.
A short description of data set [6]: Cmax in human CSF at 500 mg, po qd administered for 8 weeks. On the set-up: time 8 weeks, dose 500 mg, route po. The class given is ADME, organism-based, Cerebrospinal fluid.
A short description of data set [7]: Induction of mitophagy in human HeLa cells. The class given is functional, cell-based.
Data set [8] can be described thus: Drug concentration in brain of mouse at 400 mg/kg, po qd. The class given is ADME, organism-based. The settings on record: in vivo, read-out: Ct.

hERG (KCNH2), sequence (Q12809 whole entry): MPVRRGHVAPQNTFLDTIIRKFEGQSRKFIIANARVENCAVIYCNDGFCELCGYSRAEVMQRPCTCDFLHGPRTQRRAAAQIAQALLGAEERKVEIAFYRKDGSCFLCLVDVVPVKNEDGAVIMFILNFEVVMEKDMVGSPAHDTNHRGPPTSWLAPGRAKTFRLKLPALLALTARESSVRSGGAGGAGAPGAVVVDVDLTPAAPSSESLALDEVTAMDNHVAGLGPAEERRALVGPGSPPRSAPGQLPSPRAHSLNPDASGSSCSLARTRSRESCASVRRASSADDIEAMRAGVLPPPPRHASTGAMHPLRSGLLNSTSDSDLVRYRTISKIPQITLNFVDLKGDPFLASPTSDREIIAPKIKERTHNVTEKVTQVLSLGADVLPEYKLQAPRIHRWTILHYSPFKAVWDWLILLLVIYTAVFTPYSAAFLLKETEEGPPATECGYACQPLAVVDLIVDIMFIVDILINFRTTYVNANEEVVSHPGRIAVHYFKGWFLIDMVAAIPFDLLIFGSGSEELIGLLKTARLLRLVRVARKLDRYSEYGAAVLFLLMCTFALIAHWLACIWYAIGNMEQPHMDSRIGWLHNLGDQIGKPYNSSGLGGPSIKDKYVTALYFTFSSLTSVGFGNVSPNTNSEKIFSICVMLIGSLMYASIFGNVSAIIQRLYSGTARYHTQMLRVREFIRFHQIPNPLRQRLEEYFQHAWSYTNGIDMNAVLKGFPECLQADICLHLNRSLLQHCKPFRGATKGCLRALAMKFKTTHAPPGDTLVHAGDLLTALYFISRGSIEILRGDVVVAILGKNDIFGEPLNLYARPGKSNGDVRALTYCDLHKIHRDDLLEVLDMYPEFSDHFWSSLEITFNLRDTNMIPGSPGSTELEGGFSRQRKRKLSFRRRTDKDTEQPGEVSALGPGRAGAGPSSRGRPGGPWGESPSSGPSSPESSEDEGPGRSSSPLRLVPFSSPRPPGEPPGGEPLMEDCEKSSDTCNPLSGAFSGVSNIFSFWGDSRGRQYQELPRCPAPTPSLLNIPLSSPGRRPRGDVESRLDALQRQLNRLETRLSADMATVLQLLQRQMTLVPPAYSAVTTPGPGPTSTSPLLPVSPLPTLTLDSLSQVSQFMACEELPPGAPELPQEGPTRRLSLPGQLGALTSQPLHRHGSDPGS

With `CN(CCOc1ccc(CC2SC(=O)NC2=O)cc1)c1ccccn1` (stereo not drawn) [ROSIGLITAZONE], in data set [1], the Cmax – broadly, the peak of the concentration-time curve – turned out to be 2960 nM.
`CO[C@H]1C[C@@H]2CC[C@@H](C)[C@@](O)(O2)C(=O)C(=O)N2CCCC[C@H]2C(=O)O[C@H]([C@H](C)C[C@@H]2CC[C@@H](OCCO)[C@H](OC)C2)CC(=O)[C@H](C)/C=C(\C)[C@@H](O)[C@@H](OC)C(=O)[C@H](C)C[C@H](C)/C=C/C=C/C=C/1C` [EVEROLIMUS]: in data set [2], the Kp (commonly the ratio of the level in a tissue or fluid to that in plasma or blood) came out at 0.015.
Take `C[C@@H]1C[C@@H](NC(=O)c2ncc(-c3cccc(C#N)c3)o2)CN1C#N`: the inhibition (in general, the change of the read-out against control, counted positive when it falls) at 30 µM in data set [3] stood at 30.2%. The efflux ratio (in general, a quotient of directional permeabilities that is used to spot active efflux) in data set [4] was determined as 23.
Turning to `CN(C)C(=N)N=C(N)N` [METFORMIN], the Cmax in data set [5] and in data set [6] was 741 nM in each case.
On to `FC(F)(F)c1cc2c(NC3CCCc4ccccc43)ncnc2[nH]1` (stereo not drawn), for which the EC50 (commonly the concentration that produces a half-maximal response) in data set [7] was 440 nM.
With `c1coc(CNc2ncnc3[nH]cnc23)c1` [KINETIN], the concentration in data set [8] was 2970 nM.

These data come from ChEMBL document CHEMBL5223066, “The medicinal chemistry of mitochondrial dysfunction: a critical overview of efforts to modulate mitochondrial health” (RSC Med Chem, 2021).
